{"source": "paper PMC4498294", "about": "“Tetrahydroisoquinolines affect the whole-cell phenotype of Mycobacterium tuberculosis by inhibiting the ATP-dependent MurE ligase” (Journal of Antimicrobial Chemotherapy, 2015)", "key": {"[1]": {"test_system": "M. tuberculosis H37Rv", "conditions": "virulent M. tuberculosis H37Rv strain; cited from earlier work"}, "[2]": {"test_system": "M. tuberculosis H37Rv", "assay": "SPOTi growth inhibition assay, M. tuberculosis H37Rv", "format": "cell-based", "conditions": "Mycobacterium tuberculosis, H37RV, SPOTi, read-out: MIC M. tuberculosis H37Rv"}, "[3]": {"test_system": "murine macrophage cell line RAW264.7", "parameters": "method as in Gupta and Bhakta.[27]", "conditions": "ref Gupta and Bhakta.[27]; cited from earlier work"}, "[4]": {"target": "MurE (Rv2158c) protein of M. tuberculosis H37Rv (Mycobacterium tuberculosis, UniProt P9WJL3)", "sequence (P9WJL3 whole entry, looked up)": "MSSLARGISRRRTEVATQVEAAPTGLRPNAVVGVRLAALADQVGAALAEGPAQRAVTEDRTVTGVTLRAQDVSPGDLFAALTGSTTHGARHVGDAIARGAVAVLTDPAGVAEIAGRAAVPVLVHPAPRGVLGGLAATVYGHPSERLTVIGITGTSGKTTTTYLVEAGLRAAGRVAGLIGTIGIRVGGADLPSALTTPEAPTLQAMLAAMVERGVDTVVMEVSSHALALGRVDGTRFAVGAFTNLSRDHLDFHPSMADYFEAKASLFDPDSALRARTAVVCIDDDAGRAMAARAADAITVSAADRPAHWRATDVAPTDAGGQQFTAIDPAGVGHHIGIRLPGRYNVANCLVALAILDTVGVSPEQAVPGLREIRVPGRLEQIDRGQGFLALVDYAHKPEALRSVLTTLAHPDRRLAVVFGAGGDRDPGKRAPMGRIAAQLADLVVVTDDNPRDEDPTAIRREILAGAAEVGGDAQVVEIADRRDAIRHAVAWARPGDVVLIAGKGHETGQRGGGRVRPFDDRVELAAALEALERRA", "assay": "Mtb-MurE HPLC inhibition assay", "format": "biochemical"}, "[5]": {"test_system": "M. bovis BCG Pasteur", "assay": "microbe, parasite or virus in culture", "format": "cell-based", "conditions": "Mycobacterium tuberculosis variant bovis BCG, BCG"}, "[6]": {"target": "T1, CYP 2D6 (Homo sapiens, UniProt P10635)", "T1 construct": "purchased; host or cells: baculosomes (insect-cell microsomes; own knowledge)", "T1 sequence (P10635 whole entry)": "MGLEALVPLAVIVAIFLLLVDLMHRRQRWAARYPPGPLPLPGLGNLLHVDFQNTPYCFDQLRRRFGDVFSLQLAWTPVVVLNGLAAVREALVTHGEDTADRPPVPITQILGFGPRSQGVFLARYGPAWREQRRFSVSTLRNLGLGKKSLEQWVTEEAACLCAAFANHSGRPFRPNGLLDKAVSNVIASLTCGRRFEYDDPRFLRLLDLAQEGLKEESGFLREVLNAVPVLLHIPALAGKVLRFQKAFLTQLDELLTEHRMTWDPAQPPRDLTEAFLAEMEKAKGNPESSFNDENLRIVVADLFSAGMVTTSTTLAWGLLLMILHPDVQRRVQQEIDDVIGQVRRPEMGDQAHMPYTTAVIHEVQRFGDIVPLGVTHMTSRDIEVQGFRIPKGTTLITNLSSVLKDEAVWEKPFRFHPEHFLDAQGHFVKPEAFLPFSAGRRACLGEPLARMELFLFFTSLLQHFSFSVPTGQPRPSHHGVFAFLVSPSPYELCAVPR", "assay": "CYP450 inhibition assay, CYP 2D6", "format": "in vitro ADME", "parameters": "dose or concentration left out as unconfirmed", "conditions": "CYP baculosomes with recombinant human CYP2D6, probe fluorogenic substrate (not named); human recombinant enzymes; read-out: Mean % inhibtion CYP 2D6", "method": "(§1) The compounds originally dissolved in DMSO were added to PBS to give a resulting concentration of […]. CYP baculosomes containing cDNA for a single human P450 isozyme, the fluorogenic substrate and the NADPH were added to the test solution. The reaction was incubated at 37°C for at least 1 h. Fluorogenic substrates metabolized by CYP enzymes result in highly fluorescent products in aqueous solution. The inhibition of CYP prevents this metabolism, which corresponds to a decrease in the fluorescence signal. The fluorescence was measured on a plate reader."}, "[7]": {"target": "T2, CYP 2C9 (Homo sapiens, UniProt P11712)", "T2 construct": "purchased; host or cells: baculosomes (insect-cell microsomes; own knowledge)", "T2 sequence (P11712 whole entry)": "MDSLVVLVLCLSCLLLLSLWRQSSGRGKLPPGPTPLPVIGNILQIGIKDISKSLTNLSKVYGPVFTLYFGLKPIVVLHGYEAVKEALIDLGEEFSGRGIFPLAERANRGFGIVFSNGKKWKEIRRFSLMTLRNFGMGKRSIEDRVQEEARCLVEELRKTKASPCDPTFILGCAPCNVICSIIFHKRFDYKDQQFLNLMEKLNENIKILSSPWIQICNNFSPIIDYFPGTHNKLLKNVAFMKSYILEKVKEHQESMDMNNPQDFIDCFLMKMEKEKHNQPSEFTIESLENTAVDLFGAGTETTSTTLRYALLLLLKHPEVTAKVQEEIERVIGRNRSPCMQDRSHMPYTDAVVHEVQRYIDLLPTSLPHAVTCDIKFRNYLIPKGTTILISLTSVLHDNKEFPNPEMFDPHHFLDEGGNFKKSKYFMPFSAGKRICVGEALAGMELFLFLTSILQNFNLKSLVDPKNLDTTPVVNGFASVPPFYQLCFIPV", "assay": "CYP450 inhibition assay, CYP 2C9", "format": "in vitro ADME", "parameters": "dose or concentration left out as unconfirmed", "conditions": "CYP baculosomes with recombinant human CYP2C9, probe fluorogenic substrate (not named); human recombinant enzymes; read-out: Mean % inhibtion CYP 2C9", "method": "as §1"}, "[8]": {"target": "T3, CYP 2C19 (Homo sapiens, UniProt P33261)", "T3 construct": "purchased; host or cells: baculosomes (insect-cell microsomes; own knowledge)", "T3 sequence (P33261 whole entry)": "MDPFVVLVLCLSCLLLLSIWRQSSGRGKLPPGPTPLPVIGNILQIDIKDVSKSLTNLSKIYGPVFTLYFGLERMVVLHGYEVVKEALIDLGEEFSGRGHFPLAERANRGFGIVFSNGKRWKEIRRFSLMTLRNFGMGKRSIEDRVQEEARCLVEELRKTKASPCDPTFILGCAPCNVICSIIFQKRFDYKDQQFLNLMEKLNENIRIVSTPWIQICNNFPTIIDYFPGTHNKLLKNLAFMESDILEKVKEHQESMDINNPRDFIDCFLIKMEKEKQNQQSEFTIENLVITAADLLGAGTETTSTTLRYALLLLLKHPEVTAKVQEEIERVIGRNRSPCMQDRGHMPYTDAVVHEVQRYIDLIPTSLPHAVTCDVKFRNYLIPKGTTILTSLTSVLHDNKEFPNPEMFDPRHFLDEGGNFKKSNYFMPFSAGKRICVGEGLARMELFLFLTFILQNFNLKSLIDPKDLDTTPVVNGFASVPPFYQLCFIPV", "assay": "CYP450 inhibition assay, CYP 2C19", "format": "in vitro ADME", "parameters": "dose or concentration left out as unconfirmed", "conditions": "CYP baculosomes with recombinant human CYP2C19, probe fluorogenic substrate (not named); human recombinant enzymes; read-out: Mean % inhibtion CYP 2C19", "method": "as §1"}, "[9]": {"target": "T4, CYP 1A2 (Homo sapiens, UniProt P05177)", "T4 construct": "purchased; host or cells: baculosomes (insect-cell microsomes; own knowledge)", "T4 sequence (P05177 1-516)": "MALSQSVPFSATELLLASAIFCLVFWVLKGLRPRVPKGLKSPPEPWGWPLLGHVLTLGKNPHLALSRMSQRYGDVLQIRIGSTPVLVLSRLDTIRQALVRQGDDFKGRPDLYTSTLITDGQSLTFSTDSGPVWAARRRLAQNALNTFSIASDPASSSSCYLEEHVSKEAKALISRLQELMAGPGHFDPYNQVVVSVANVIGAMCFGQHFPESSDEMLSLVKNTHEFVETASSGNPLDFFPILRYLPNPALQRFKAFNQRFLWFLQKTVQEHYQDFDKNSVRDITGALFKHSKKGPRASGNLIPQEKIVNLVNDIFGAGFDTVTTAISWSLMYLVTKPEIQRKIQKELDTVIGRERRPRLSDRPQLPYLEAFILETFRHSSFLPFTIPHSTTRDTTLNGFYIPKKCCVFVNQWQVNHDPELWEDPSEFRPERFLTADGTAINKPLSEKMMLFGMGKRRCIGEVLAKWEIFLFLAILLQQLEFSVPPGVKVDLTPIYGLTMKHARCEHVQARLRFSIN", "assay": "CYP450 inhibition assay, CYP 1A2", "format": "in vitro ADME", "parameters": "dose or concentration left out as unconfirmed", "conditions": "CYP baculosomes with recombinant human CYP1A2, probe fluorogenic substrate (not named); human recombinant enzymes; read-out: Mean % inhibtion CYP 1A2", "method": "as §1"}, "[10]": {"target": "T5, CYP 3A4 (Homo sapiens, UniProt P08684)", "T5 construct": "purchased; host or cells: baculosomes (insect-cell microsomes; own knowledge)", "T5 sequence (P08684 whole entry)": "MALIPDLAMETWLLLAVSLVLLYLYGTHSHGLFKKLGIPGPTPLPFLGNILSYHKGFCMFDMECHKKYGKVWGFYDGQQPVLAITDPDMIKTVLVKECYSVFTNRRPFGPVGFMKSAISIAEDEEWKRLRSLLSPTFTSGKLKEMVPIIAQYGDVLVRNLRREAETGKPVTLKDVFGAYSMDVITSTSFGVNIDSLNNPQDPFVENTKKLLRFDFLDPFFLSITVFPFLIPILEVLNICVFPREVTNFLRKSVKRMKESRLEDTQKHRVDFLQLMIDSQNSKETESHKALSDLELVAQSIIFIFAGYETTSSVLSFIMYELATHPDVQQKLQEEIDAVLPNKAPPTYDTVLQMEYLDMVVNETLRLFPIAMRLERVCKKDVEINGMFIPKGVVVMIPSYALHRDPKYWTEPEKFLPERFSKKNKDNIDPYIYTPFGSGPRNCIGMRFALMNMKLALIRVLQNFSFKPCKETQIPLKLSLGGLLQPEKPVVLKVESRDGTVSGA", "assay": "CYP450 inhibition assay, CYP 3A4", "format": "in vitro ADME", "parameters": "dose or concentration left out as unconfirmed", "conditions": "CYP baculosomes with recombinant human CYP3A4, probe fluorogenic substrate (not named); human recombinant enzymes; read-out: Mean % inhibtion CYP 3A4", "method": "as §1"}, "[11]": {"test_system": "murine macrophage cell line RAW264.7", "assay": "Eukaryotic cell toxicity assay, RAW264.7", "format": "cell-based", "conditions": "Mus musculus, read-out: GIC50 RAW264.7"}, "[12]": {"test_system": "M. bovis BCG", "format": "cell-based", "conditions": "M. bovis BCG treated at 4 × MIC for 48 h (D-cycloserine 100 mg/L, 39 160 mg/L); 100 cells"}, "[13]": {"conditions": "336 h, read-out: MIC M. bovis BCG, SPOTi, 2 weeks at 37°C"}, "[14]": {"conditions": "read-out: MIC M. bovis BCG, SPOTi, value in square brackets"}}, "note": "Read-outs that look alike come from different tables or passages of the source. Marks after values point to notes of the source that are not given here.", "data": [{"smiles": "COc1cc2c(cc1OC)-c1c3c(cc4c1[C@H](C2)NCC4)OCO3", "note": "[(-)-Nordicentrine]", "values": [{"measurement": "MIC M. tuberculosis H37Rv", "setting": "[1]", "result": 12.5, "unit": "µg/mL"}]}, {"smiles": "NNC(=O)c1ccncc1", "note": "[Isoniazid, reference compound]", "values": [{"measurement": "MIC", "setting": "[2]; 336 h, 2 weeks at 37°C", "result": 0.1, "unit": "µg/mL"}, {"measurement": "MIC", "setting": "[2]; value in square brackets", "result": 0.73, "unit": "µM"}, {"measurement": "GIC50 RAW264.7", "setting": "[3]", "result": "3000^a mg/L"}, {"measurement": "IC50", "setting": "[4]; HPLC assay, 37°C 30 min", "result": "> 1000", "unit": "µM"}, {"measurement": "Mtb-MurE inhibitory effect", "setting": "[4]; negative control, any of the concentrations examined", "result": "no inhibitory effect"}, {"measurement": "MIC", "setting": "[5]; [13]", "result": 0.1, "unit": "µg/mL"}, {"measurement": "MIC", "setting": "[5]; [14]", "result": 0.73, "unit": "µM"}]}, {"smiles": "O=c1cc(-c2ccccc2)oc2c1ccc1ccccc12", "note": "[α-naphthoflavone, reference compound]", "values": [{"measurement": "inhibition", "setting": "[6]", "result": 99.1, "unit": "%"}, {"measurement": "inhibition", "setting": "[7]", "result": 101, "unit": "%"}, {"measurement": "inhibition", "setting": "[8]", "result": 100, "unit": "%"}, {"measurement": "inhibition", "setting": "[9]", "result": 100, "unit": "%"}, {"measurement": "inhibition", "setting": "[10]", "result": 101, "unit": "%"}]}, {"smiles": "COc1ccc(Cl)c2c1C(Cc1cc3c(cc1Br)OCO3)NCC2", "note": "(centres unmarked) [Compound 39]", "values": [{"measurement": "MIC", "setting": "[2]; 336 h, 2 weeks at 37°C", "result": 40, "unit": "µg/mL"}, {"measurement": "MIC", "setting": "[2]; value in square brackets", "result": 97, "unit": "µM"}, {"measurement": "IC50", "setting": "[11]; RAW264.7, value in square brackets", "result": 178, "unit": "µM"}, {"measurement": "IC50", "setting": "[11]; murine macrophage cell line RAW264.7", "result": 73, "unit": "µg/mL"}, {"measurement": "MIC", "setting": "[5]; [13]", "result": 40, "unit": "µg/mL"}, {"measurement": "MIC", "setting": "[5]; [14]", "result": 97, "unit": "µM"}, {"measurement": "cell length", "setting": "[12]", "result": "4.7 ± 1.4", "unit": "μm"}]}]}
